Assay results as given in publication PMC12849875, “CYP4X1/sEH‐Dependent Endocannabinoid Metabolism Drives Fibroblast‐Mediated Immunosuppression to Limit Immunotherapy in Colon Cancer” (Advanced Science, 2025).

Experiments:
[1] = biological target: T1, GPR119 (Homo sapiens, UniProt Q8TDV5); assay: cAMP accumulation in heterologous expression system, positive control agonist; type: cell-based
T1 sequence (Q8TDV5 1-335): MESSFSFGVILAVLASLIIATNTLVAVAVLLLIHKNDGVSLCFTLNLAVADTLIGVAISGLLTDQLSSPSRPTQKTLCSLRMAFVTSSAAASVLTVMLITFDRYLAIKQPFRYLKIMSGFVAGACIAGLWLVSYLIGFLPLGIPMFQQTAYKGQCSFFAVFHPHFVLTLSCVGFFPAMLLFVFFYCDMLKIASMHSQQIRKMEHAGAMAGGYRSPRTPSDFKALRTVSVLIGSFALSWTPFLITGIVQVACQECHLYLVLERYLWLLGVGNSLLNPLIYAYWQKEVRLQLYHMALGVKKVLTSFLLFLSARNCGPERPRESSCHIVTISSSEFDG

[2] = biological target: T1, GPR119; assay: cAMP accumulation in heterologous expression system; PathHunter β-arrestin […] recruitment (EC50 =[…]); type: cell-based

| Structure (SMILES) | cAMP accumulation in heterologous expression system, positive control agonist [1] | EC50 [2] [µM] |
| --- | --- | --- |
| CCCCCCCC/C=C\CCCCCCCC(=O)NCCO [OEA] | OEA, the most potent endogenous agonist of GPR119, was used as the positive control. |  |
| CCCCCC1OC1C/C=C\C/C=C\C/C=C\CCCC(=O)NCCO (centres unmarked) [14,15-EET-EA] |  | 3.74 |
